These results are taken from ChEMBL document CHEMBL3399949, “Fingerprint-based consensus virtual screening towards structurally new 5-HT(6)R ligands” (Bioorg Med Chem Lett, 2015).

This data set is described as follows: Dissociation constant, pKa of the compound. The data set is classed as physicochemical.

Molecules are shown by their SMILES.

Turning to `COCCn1c(C)c(C)c(S(=O)(=O)c2ccc(Cl)cc2)c1N`, the pKa (in general, the negative logarithm of the acid dissociation constant) was -0.59. As for `Cc1ccc(S(=O)(=O)N/N=C2\CCCc3c2[nH]c2ccc(Cl)cc32)cc1`, the pKa is -0.33. To `Cc1ccc(Nc2c(S(=O)(=O)c3ccccc3)cnc3ccc(Cl)cc23)cc1` belongs 2.34; to `O=S(=O)(Nc1ccn(Cc2cccc3ccccc23)n1)c1ccc(Br)s1`, 1.93.

As for `Cc1ccc(S(=O)(=O)c2cnc3ccc(F)cc3c2SCc2ccc(Cl)cc2)cc1`, the pKa was -0.25. Molecule `NC(=O)C1CCN(c2c(S(=O)(=O)c3ccccc3)cnc3ccc(Cl)cc23)CC1` had a pKa of 3.05. The figure for `Nc1c(S(=O)(=O)c2ccccc2)sc2nc(-c3ccccc3)cc(-c3ccccc3)c12` is -0.69; for `COc1cccc(-n2cc(C(=O)N(C)c3cccc(Cl)c3)c3ccccc3c2=O)c1` it is -1.37. Regarding `O=S(=O)(Nc1cc(Sc2cccc3cccnc23)c(O)c2ccccc12)c1ccc(F)cc1`, the pKa came out at 3.48. In turn, `O=S(=O)(Nc1ccccc1-c1nccc2ccccc12)c1ccc(Cl)cc1` displayed a pKa of 5.3.

For `O=S(=O)(Nc1cc2c(c3ccccc13)OC1(N3CCOCC3)CCCCC21)c1ccccc1` (centres undefined), the pKa is 5.56. To `O=S(=O)(Nc1cc(Sc2cccc3cccnc23)c(O)c2ccccc12)c1ccccc1` belongs 3.48.

Molecule `Brc1ccc2c(c1)c1c3n2CCN(Cc2ccccc2)C3CCC1` (centres undefined) had a pKa of 6.95.

In turn, `Cc1ccc(Cl)cc1N(C)C(=O)c1cn(-c2ccc(F)cc2F)c(=O)c2ccccc12` displayed a pKa of -1.07.
